From patent publication US20100331305A1, “OXO-HETEROCYCLE FUSED PYRIMIDINE COMPOUNDS, COMPOSITIONS AND METHODS OF USE” (Genentech, Inc., priority 2009, published 2010)

What was measured:
[1] = target: mTOR enzyme (mTOR(1360-2549)+GBL) (Homo sapiens, UniProt P42345); experiment: In vitro mTOR kinase assay (TR-FRET); format: biochemical; settings: 0.25 nM mTOR+GBL, 8 uM ATP; values tied to compounds by order of Table 1; 'x or y' = two alternative values for separated diastereomers of unassigned stereochemistry; read-out: activity level (Ki) in the mTOR kinase assay
mTOR enzyme (mTOR(1360-2549)+GBL), sequence (P42345 1360-2549, species assumed): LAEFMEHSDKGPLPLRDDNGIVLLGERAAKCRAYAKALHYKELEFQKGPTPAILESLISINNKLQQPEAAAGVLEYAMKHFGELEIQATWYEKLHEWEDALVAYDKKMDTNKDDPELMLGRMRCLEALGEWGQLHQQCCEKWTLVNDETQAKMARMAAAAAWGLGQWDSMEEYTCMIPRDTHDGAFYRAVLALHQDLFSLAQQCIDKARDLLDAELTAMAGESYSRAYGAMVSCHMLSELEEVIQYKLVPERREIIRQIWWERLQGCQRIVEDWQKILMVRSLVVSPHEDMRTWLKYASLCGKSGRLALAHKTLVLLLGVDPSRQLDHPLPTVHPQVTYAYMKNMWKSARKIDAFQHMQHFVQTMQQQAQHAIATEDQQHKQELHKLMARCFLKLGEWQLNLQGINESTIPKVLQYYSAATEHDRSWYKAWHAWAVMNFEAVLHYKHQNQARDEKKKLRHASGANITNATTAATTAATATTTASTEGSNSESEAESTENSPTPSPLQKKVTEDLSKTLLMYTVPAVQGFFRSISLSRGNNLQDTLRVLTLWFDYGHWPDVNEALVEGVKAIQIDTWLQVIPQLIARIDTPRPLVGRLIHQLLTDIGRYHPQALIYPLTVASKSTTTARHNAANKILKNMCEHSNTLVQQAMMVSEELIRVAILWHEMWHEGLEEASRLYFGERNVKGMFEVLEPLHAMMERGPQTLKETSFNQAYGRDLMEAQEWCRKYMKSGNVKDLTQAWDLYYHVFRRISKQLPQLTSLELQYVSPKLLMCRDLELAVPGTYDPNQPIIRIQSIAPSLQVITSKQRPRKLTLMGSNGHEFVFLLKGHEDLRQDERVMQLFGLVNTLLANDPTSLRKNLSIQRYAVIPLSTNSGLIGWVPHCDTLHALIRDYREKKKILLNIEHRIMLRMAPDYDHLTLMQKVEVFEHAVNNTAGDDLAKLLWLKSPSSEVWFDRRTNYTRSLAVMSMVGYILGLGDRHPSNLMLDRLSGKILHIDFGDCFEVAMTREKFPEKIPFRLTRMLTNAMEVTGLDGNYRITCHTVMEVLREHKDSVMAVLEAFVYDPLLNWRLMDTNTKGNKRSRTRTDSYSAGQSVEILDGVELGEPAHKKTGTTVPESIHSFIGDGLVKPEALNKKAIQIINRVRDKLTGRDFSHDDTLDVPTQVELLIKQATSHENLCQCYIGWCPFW
mTOR enzyme (mTOR(1360-2549)+GBL), sequence (Q9BVC4 whole entry partner, species assumed): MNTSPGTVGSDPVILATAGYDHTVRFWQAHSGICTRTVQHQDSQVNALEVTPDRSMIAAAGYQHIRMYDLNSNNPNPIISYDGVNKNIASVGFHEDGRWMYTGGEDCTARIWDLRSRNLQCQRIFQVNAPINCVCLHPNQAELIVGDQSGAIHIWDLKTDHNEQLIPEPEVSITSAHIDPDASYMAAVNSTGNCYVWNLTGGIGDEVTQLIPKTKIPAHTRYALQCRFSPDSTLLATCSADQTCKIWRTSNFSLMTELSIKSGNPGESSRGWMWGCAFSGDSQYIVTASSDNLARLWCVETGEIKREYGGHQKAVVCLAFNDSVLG
From the text: a. In Vitro mTOR Kinase Assay
The reaction is stopped by an addition of a Terbium-labeled phospho-specific antibody, e.g., Tb-labeled anti-p4E-BP1 T37/T46, (Invitrogen, product #PR8835A), EDTA, and TR-FRET buffer solution (Invitrogen, Product #PR3756B). Product formation is detected by way of time-resolved fluorescence resonance energy transfer (TR-FRET), which occurs when the phosphorylated substrate and labeled antibody are in close proximity due to phospho-specific binding. Enzymatic activity is measured as an increase in TR-FRET signal using a Perkin Elmer Envision plate reader.
Compound activity is tested in 10 point dose curves starting at the highest final concentration of 10 uM. They are serially diluted in 100% DMSO prior to further dilution with assay buffer. […] 8 μL of solution containing 2 nM Tb-anti-p4E-BP1 antibody & 10 mM EDTA diluted TR-FRET buffer is then added and incubated for 30 minutes to stop the reaction. The plate is scanned with the Envision plate reader. Ki values are calculated in Assay Explorer using the Morrison ATP-competitive tight binding equation for Ki apparent determination.

PC3 cells = experiment: In vitro cell proliferation assay; format: cell-based, human; settings: values tied to compounds by order of Table 1
Procedure: c. In Vitro Cell Proliferation Assay Efficacy of Formula I compounds were measured by a cell proliferation assay employing the following protocol: 1. An aliquot of 20 μl of cell culture containing about 10^3 cells (PC3 or MDAMB361.1) in medium was deposited in each well of a 384-well, opaque-walled plate. 2. Control wells were prepared containing medium and without cells; Cells were allowed to settle overnight. 3. The compound was added to the experimental wells and incubated for 3 days. 4. The plates were equilibrated to room temperature for approximately 30 minutes. 5. A volume of CellTiter-Glo Reagent equal to the volume of cell culture medium present in each well was added. […] The contents were mixed for 2 minutes on an orbital shaker to induce cell lysis. 7. The plate was incubated at room temperature for 20 minutes to stabilize the luminescence signal. 8. Luminescence was recorded and reported in graphs as RLU=relative luminescence units. Alternatively, cells were seeded at optimal density in a 96 well plate and incubated for 4 days in the presence of test compound. Alamar BlueTM was subsequently added to the assay medium, and cells were incubated for 6 h before reading at 544 nm excitation, 590 nm emission. EC50 values were calculated using a sigmoidal dose response curve fit.

[2] = Homo sapiens, PC-3, with PC3 cells

| Structure (SMILES) | Ki [1] [nM] | EC50 (PC3 cells; [2]) [nM] | EC50 (PC3 cells; with PC3 cells) [nM] |
| --- | --- | --- | --- |
| CCNC(=O)Nc1ccc(-c2nc(N3CCOC[C@@H]3C)c3c(n2)C(C)(CCn2ccnc2)OC3)cc1 (single isomer, unassigned) [Example 80 es (R)] | 9 | 454 | – |
| CCNC(=O)Nc1ccc(-c2nc(N3CCOC[C@@H]3C)c3c(n2)C(C)(CCn2ccnc2)OC3)cc1 (single isomer, unassigned) [Example 80 es (S)] | 2 | – | 316 |
| CCNC(=O)Nc1ccc(-c2nc(N3CCOC[C@@H]3C)c3c(n2)C(C)(CCn2ccnc2C)OC3)cc1 (single isomer, unassigned) [Example 81 et (S)] | 7 | 402 | – |
| O=C(Nc1ccc(-c2nc3c(c(N4[C@@H]5CC[C@H]4COC5)n2)CCCO3)cc1)NC1COC1 [1-(4-(4-((1R,5S)-3-oxa-8-azabicyclo[3.2.1]octan-8-yl)-6,7-dihydro-5H-pyrano[2,3-d]pyrimidin-2-yl)phenyl)-3-(oxetan-3-yl)urea] | 5 | 238 | – |
| CCNC(=O)Nc1ccc(-c2nc3c(c(N4[C@@H]5CC[C@H]4COC5)n2)CCCO3)cc1 [1-(4-(4-((1R,5S)-3-oxa-8-azabicyclo[3.2.1]octan-8-yl)-6,7-dihydro-5H-pyrano[2,3-d]pyrimidin-2-yl)phenyl)-3-ethylurea] | 1 | 108 | – |
| CCNC(=O)Nc1ccc(-c2nc3c(c(N4CCOC[C@@H]4C)n2)COC(COCc2ccccc2)C3)cc1 (stereo partly drawn) [1-(4-(7-(benzyloxymethyl)-4-((S)-3-methylmorpholino)-7,8-dihydro-5H-pyrano[4,3-d]pyrimidin-2-yl)phenyl)-3-ethylurea] | 16 | 585 | – |
| CCNC(=O)Nc1ccc(-c2nc3c(c(N4CCOCC4)n2)COC(c2ccccn2)C3)cc1 (centres unmarked) [1-ethyl-3-(4-(4-morpholino-7-(pyridin-2-yl)-7,8-dihydro-5H-pyrano[4,3-d]pyrimidin-2-yl)phenyl)urea] | 27 | 914 | – |
| CCNC(=O)Nc1ccc(-c2nc3c(c(N4CCOC[C@@H]4C)n2)COC(CO)C3)cc1 (stereo partly drawn) [1-ethyl-3-(4-(7-(hydroxymethyl)-4-((S)-3-methylmorpholino)-7,8-dihydro-5H-pyrano[4,3-d]pyrimidin-2-yl)phenyl)urea] | – | 445 | – |
| CCNC(=O)Nc1ccc(-c2nc(N3CCOC[C@@H]3C)c3c(n2)[C@@](C)(CC(C)O)OC3)cc1 (stereo partly drawn) [1-ethyl-3-(4-((7R)-7-(2-hydroxypropyl)-7-methyl-4-((S)-3-methylmorpholino)-5,7-dihydrofuro[3,4-d]pyrimidin-2-yl)phenyl)urea] | 2 | 39 | – |
| CCNC(=O)Nc1ccc(-c2nc(N3CCOC[C@@H]3C)c3c(n2)[C@](C)(CC(C)O)OC3)cc1 (stereo partly drawn) [1-ethyl-3-(4-((7S)-7-(2-hydroxypropyl)-7-methyl-4-((S)-3-methylmorpholino)-5,7-dihydrofuro[3,4-d]pyrimidin-2-yl)phenyl)urea] | 2 | 25 | – |
| C[C@H]1COCCN1c1nc(-c2ccc(Nc3nccc(=O)[nH]3)cc2)nc2c1COC(CO)C2 (stereo partly drawn) [2-(4-(7-(hydroxymethyl)-4-((S)-3-methylmorpholino)-7,8-dihydro-5H-pyrano[4,3-d]pyrimidin-2-yl)phenylamino)pyrimidin-4(3H)-one] | 4 | 2800 | – |
| CCNC(=O)Nc1ccc(-c2nc3c(c(N4CCOC[C@@H]4C)n2)COC(C)(C)C3)cc1 [(S)-1-(4-(7,7-dimethyl-4-(3-methylmorpholino)-7,8-dihydro-5H-pyrano[4,3-d]pyrimidin-2-yl)phenyl)-3-ethylurea] | 3 | 50 | – |
| CC[C@H]1COCCN1c1nc(-c2ccc(NC(=O)NC3COC3)cc2)nc2c1COCC2 [Example 6, (S)-1-(4-(4-(3-ethylmorpholino)-7,8-dihydro-5H-pyrano[4,3-d]pyrimidin-2-yl)phenyl)-3-(oxetan-3-yl)urea] | – | 180 | – |
| C=CC[C@@]1(C)OCc2c(N3CCOCC3)nc(-c3ccc(NC(=O)NCC)cc3)nc21 [Example 73 eb (R), (R)-1-(4-(7-allyl-7-methyl-4-morpholino-5,7-dihydrofuro[3,4-d]pyrimidin-2-yl)phenyl)-3-ethylurea] | – | 96.1 | – |
| C=CC[C@@]1(C)OCc2c(N3C[C@H]4CC[C@@H](C3)O4)nc(-c3ccc(NC(=O)NCC)cc3)nc21 [Example 74 eh (R), 1-(4-((R)-7-allyl-4-((1R,5S)-8-oxa-3-azabicyclo[3.2.1]octan-3-yl)-7-methyl-5,7-dihydrofuro[3,4-d]pyrimidin-2-yl)phenyl)-3-ethylurea] | – | 95 | – |
| C=CC[C@]1(C)OCc2c(N3C[C@H]4CC[C@@H](C3)O4)nc(-c3ccc(NC(=O)NCC)cc3)nc21 [Example 74 eh (S), 1-(4-((S)-7-allyl-4-((1R,5S)-8-oxa-3-azabicyclo[3.2.1]octan-3-yl)-7-methyl-5,7-dihydrofuro[3,4-d]pyrimidin-2-yl)phenyl)-3-ethylurea] | – | 153 | – |
| CCC[C@@]1(C)OCc2c(N3C[C@H]4CC[C@@H](C3)O4)nc(-c3ccc(NC(=O)NCC)cc3)nc21 [Example 74 ej (R), 1-(4-((R)-4-((1R,5S)-8-oxa-3-azabicyclo[3.2.1]octan-3-yl)-7-methyl-7-propyl-5,7-dihydrofuro[3,4-d]pyrimidin-2-yl)phenyl)-3-ethylurea] | – | 19 | – |
| CCC[C@]1(C)OCc2c(N3C[C@H]4CC[C@@H](C3)O4)nc(-c3ccc(NC(=O)NCC)cc3)nc21 [Example 74 ej (S), 1-(4-((S)-4-((1R,5S)-8-oxa-3-azabicyclo[3.2.1]octan-3-yl)-7-methyl-7-propyl-5,7-dihydrofuro[3,4-d]pyrimidin-2-yl)phenyl)-3-ethylurea] | – | 51 | – |
| CCNC(=O)Nc1ccc(-c2nc(N3CCOC[C@@H]3C)c3c(n2)[C@@](C)(CCCO)OC3)cc1 [Example 75 el (R), 1-ethyl-3-(4-((R)-7-(3-hydroxypropyl)-7-methyl-4-((S)-3-methylmorpholino)-5,7-dihydrofuro[3,4-d]pyrimidin-2-yl)phenyl)urea] | – | 322 | – |
| CCNC(=O)Nc1ccc(-c2nc(N3CCOC[C@@H]3C)c3c(n2)[C@](C)(CCCO)OC3)cc1 [Example 75 el (S), 1-ethyl-3-(4-((S)-7-(3-hydroxypropyl)-7-methyl-4-((S)-3-methylmorpholino)-5,7-dihydrofuro[3,4-d]pyrimidin-2-yl)phenyl)urea] | – | 62 | – |
| CCNC(=O)Nc1ccc(-c2nc(N3CCOCC3C)c3c(n2)C(C)(CCOc2ccccc2)OC3)cc1 (centres unmarked) [Example 91 ft^1, 1-ethyl-3-(4-(7-methyl-4-(3-methylmorpholino)-7-(2-phenoxyethyl)-5,7-dihydrofuro[3,4-d]pyrimidin-2-yl)phenyl)urea] | – | 297 | – |
| CCNC(=O)Nc1ccc(-c2nc(N3CCOC[C@@H]3C)c3c(n2)[C@](C)(CCOc2ccncc2)OC3)cc1 [Example 92 fu^1] | – | 238 | – |
| CCNC(=O)Nc1ccc(-c2nc3c(c(N4C[C@H]5CC[C@@H](C4)O5)n2)COC3)cc1 [Example 99, 1-(4-(4-(8-oxa-3-azabicyclo[3.2.1]octan-3-yl)-5,7-dihydrofuro[3,4-d]pyrimidin-2-yl)phenyl)-3-ethylurea] | – | 154 | – |
| Nc1ncc(-c2nc3c(c(N4[C@@H]5CC[C@H]4COC5)n2)CCCO3)cn1 [Example 133, 5-(4-((1R,5S)-3-oxa-8-azabicyclo[3.2.1]octan-8-yl)-6,7-dihydro-5H-pyrano[2,3-d]pyrimidin-2-yl)pyrimidin-2-amine] | 97 | – | – |
